What is called solubility is the dissolved amount per volume that the medium holds. The low end stands for a poorly soluble substance, the high end for a readily soluble substance. As usually defined, the efflux ratio is the permeability from basolateral to apical divided by that in the opposite direction, in the common usage. A word on the Papp A→B: it is how fast a substance crosses the layer from the apical side. A higher Papp A→B goes with ready permeation. Usually Papp B→A stands for the apparent permeability from the basolateral to the apical side of a cell layer. By CC50 is commonly meant the concentration at which the toxic effect on the cells reaches its halfway point. Low values mean greater toxicity to the cells, high ones lower toxicity to the cells.

The record followed here is publication PMC10671052, “Naphthyl-Substituted Indole and Pyrrole Carboxylic Acids as Effective Antibiotic Potentiators—Inhibitors of Bacterial Cystathionine γ-Lyase” (International Journal of Molecular Sciences, 2023).

The nature of series [1]: physchem. Type of series: physicochemical. As to conditions: 25 °C, pH 7.4, aqueous buffer, kinetic from dmso stock, Solubility. The method, then: A stock solution of a compound (10 mM in DMSO, 10 μL) was added to 990 μL of 100 mM sodium phosphate buffer (pH 7.4) and incubated at 25 °C for 2 h with constant shaking. The suspension was filtered through the PVDF membrane filter (Merck Millipore, Burlington, MA, USA). To 320 µL of the filtrate, 80 µL of acetonitrile was added and mixed. The mixture was transferred to a vial and analyzed by ultra-high-performance liquid chromatography (UHPLC) with UV detection. Concentrations were calculated from a 5-point calibration curve. The calibration range was 1 to 100 μM. The controls were diclofenac and nicardipine. All compounds were tested in triplicate.

A short description of series [2]: LogD7.4, miniaturized shake flask method. The format is physicochemical. The note with it: 1-octanol / 100 mM sodium phosphate buffer pH 7.4. As for the experimental part: Coefficients of distribution between 1-octanol and 100 mM sodium phosphate buffer (pH 7.4) were determined by the miniaturized shake flask method. Namely, 5 μL of a 10 mM compound’s solution in DMSO was dissolved in 245 μL of 1-octanol saturated with phosphate buffer. Next, 500 μL of phosphate buffer saturated with 1-octanol was added, followed by mixing for 3 h. […] After that, 50 μL of the octanol phase (top layer) was aspirated and diluted with 500 μL of 1-octanol saturated with phosphate buffer. Then, the remaining octanol phase was removed; 50 μL of the buffer layer was aspirated and diluted with 500 μL of phosphate buffer saturated with 1-octanol. Both the octanol and phosphate buffer samples were analyzed by LC–MS/MS. The distribution coefficient was determined according to the following equation: logD7.4 = log10 (peak area for octanol sample/peak area for buffer sample). […] All compounds were tested in triplicate.

A short description of series [3]: Caco-2 cell permeability. Type of series: in vitro ADME. As to conditions: human. The method, then: (§1) The culture medium consisted of high-glucose DMEM containing 10% of fetal bovine serum, 4 mM L-glutamine, 1% of a solution of nonessential amino acids (PanEco, Moscow, Russia), 100 U/mL penicillin, and 100 μg/mL streptomycin. The cells were maintained for 21 days at 37 °C and 5% CO2. The medium was refreshed every 3 days. A Lucifer yellow rejection assay was applied to determine cell monolayer integrity. […] The Lucifer yellow rejection value was calculated using the equation: LY % rejection = 100*(1−FIb/FIa), where FIb is the fluorescence in the basolateral compartment and FIa is the fluorescence in the apical compartment. […] Both apical-to-basolateral (AB) and basolateral-to-apical (BA) transport were assessed. For apical-to-basolateral transport, 0.3 mL of a test compound solution was added to the apical side, and 0.8 mL of HBSS with 0.5% of BSA was added to the basolateral side. For basolateral-to-apical transport, 0.8 mL of a test compound solution was added to the basolateral side and 0.3 mL of HBSS with 0.5% of BSA was added to the apical side. The Caco-2 cell monolayers were then incubated for 2 h at 37 °C. The pH values of the apical and basolateral compartments were 7.4. […] The supernatant was transferred to a vial and analyzed by liquid chromatography coupled with tandem MS (LC–MS/MS). The AB (or BA) apparent permeability coefficients (Papp, 10^–6 cm/s) were calculated according to the following formula [40, 41]: Papp = (V × ∆C)/(∆t × A × C0), where V is the volume of the receiver compartment (cm^3), C0 is the initial drug concentration in the donor compartment (μM), ∆C is the concentration in the receiver compartment (μM), ∆t is the incubation time (s), and A is the surface area of the cell monolayer (cm^2). An efflux ratio was calculated by dividing Papp (BA) by Papp (AB). All compounds were tested in duplicate.
A general note: Caco-2 cells form a polarised layer with tight junctions and transporters.

The test system of series [4] is Caco-2 cell monolayer. In words: Caco-2 cell permeability. Type of series: in vitro ADME. The note with it: Papp (BA) / Papp (AB); listed as lead compound. As for the experimental part: as §1
Series [5] is described as follows: HEK293 cytotoxicity assay (Alamar Blue). The format is cell-based. As to conditions: human, HEK293 cells, HEK293, 72 h.

`O=C(O)c1cc2ccccc2n1Cc1cccc2ccccc12` [Compound 2a]: the solubility at 2 h in series [1] is greater than 100 µM. Besides, in series [2] (listed as 2а), the “Measured logD7.4” value was found to be 2.14±0.14. Besides, the “Measured logD7.4” value in series [2] (listed as lead compound) was 1–3. Also, the efflux ratio at 2 h, 10 μM in series [3] (Caco-2, Papp (BA) / Papp (AB)) turned out to be 1.13. Moreover, in series [3] (Caco-2, 10 μM, 2 h, pH 7.4), the Papp A→B at 2 h, 10 μM is 43.3 ± 2.8 ×10⁻⁶ cm/s and the Papp B→A at 2 h, 10 μM is 49.1 ± 6 ×10⁻⁶ cm/s. Further, the Efflux ratio entry in series [4] is given as “less than 2.0”. For the same compound, the CC50 at 72 h in series [5] was determined as 291 ± 8.11 µM.
